Experimental data: ChEMBL document CHEMBL1156674, “Exploration of physicochemical properties and molecular modelling studies of 2-sulfonyl-phenyl-3-phenyl-indole analogs as cyclooxygenase-2 inhibitors” (Eur J Med Chem, 2008)

Each compound was assayed against T1, Prostaglandin G/H synthase 2 (Homo sapiens, UniProt P35354). Conditions: not given.
T1 sequence (P35354 whole entry): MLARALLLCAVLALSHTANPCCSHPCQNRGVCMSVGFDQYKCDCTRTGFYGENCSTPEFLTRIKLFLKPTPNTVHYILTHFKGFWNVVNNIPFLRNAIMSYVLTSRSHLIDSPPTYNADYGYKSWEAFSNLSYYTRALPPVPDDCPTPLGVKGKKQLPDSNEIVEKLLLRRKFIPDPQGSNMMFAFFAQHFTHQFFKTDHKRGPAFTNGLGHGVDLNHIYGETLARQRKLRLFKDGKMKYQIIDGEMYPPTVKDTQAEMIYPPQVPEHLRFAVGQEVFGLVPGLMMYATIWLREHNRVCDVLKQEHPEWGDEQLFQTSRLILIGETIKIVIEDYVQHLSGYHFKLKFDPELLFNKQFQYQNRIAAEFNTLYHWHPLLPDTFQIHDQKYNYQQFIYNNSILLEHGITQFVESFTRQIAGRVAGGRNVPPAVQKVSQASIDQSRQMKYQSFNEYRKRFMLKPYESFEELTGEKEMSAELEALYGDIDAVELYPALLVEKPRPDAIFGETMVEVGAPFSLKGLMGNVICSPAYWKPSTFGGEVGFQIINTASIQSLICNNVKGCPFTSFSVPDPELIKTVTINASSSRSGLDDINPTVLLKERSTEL

| Compound | IC50 [nM] |
| --- | --- |
| NS(=O)(=O)c1ccc(-c2[nH]c3ccc(Cl)cc3c2-c2ccccc2)cc1 | 0.14 |
| NS(=O)(=O)c1ccc(-c2[nH]c3ccccc3c2-c2ccc(O)cc2)cc1 | 6.44 |
| Cc1ccc2[nH]c(-c3ccc(S(N)(=O)=O)cc3)c(-c3ccccc3)c2c1 | 0.02 |
| NS(=O)(=O)c1ccc(-c2[nH]c3ccc(Cl)cc3c2-c2ccc(Cl)cc2)cc1 | 0.54 |
| NS(=O)(=O)c1ccc(-c2[nH]c3ccccc3c2-c2ccccc2)cc1 | 0.09 |

Continued, values first:

| IC50 [nM] | Compound |
| --- | --- |
| 0.6 | CS(=O)(=O)c1ccc(-c2[nH]c3ccccc3c2-c2ccccc2)cc1 |
| 0.09 | Cc1ccc(-c2c(-c3ccc(S(C)(=O)=O)cc3)[nH]c3ccccc23)cc1 |
| 1.41 | CS(=O)(=O)c1ccc(-c2[nH]c3ccc(Br)cc3c2-c2ccccc2)cc1 |
| 1.46 | Cc1ccc(-c2c(-c3ccc(S(N)(=O)=O)cc3)[nH]c3ccccc23)cc1C |
| 0.02 | COc1ccc(-c2c(-c3ccc(S(C)(=O)=O)cc3)[nH]c3ccccc23)cc1 |
| 146 | CS(=O)(=O)c1ccc(-c2[nH]c3ccccc3c2-c2ccc(Cl)cc2)cc1 |
| 0.37 | CS(=O)(=O)c1ccc(-c2[nH]c3ccccc3c2-c2ccc(Br)cc2)cc1 |
| 0.28 | Cc1ccc2[nH]c(-c3ccc(S(C)(=O)=O)cc3)c(-c3ccccc3)c2c1 |

Same assay, conditions: read-out: IC50

| Compound | IC50 [nM] |
| --- | --- |
| CS(=O)(=O)c1ccc(-c2[nH]c3ccc(Cl)cc3c2-c2ccc(Cl)cc2)cc1 | 85.1 |
| NS(=O)(=O)c1ccc(-c2[nH]c3ccc(Cl)cc3c2-c2ccccc2Cl)cc1 | 100 |
| NS(=O)(=O)c1ccc(-c2[nH]c3ccc(F)cc3c2-c2ccccc2)cc1 | 2 |
| NS(=O)(=O)c1ccc(-c2[nH]c3ccc(Cl)cc3c2-c2cccc(Cl)c2)cc1 | 3.13 |
| NS(=O)(=O)c1ccc(-c2[nH]c3ccccc3c2-c2ccc(F)cc2)cc1 | 5.15 |
| CC(=O)NS(=O)(=O)c1ccc(-c2[nH]c3ccccc3c2-c2ccccc2)cc1 | 0.18 |
| NS(=O)(=O)c1ccc(-c2[nH]c3ccc(Br)cc3c2-c2ccccc2)cc1 | 5 |
| CS(=O)(=O)c1ccc(-c2[nH]c3ccc(Cl)cc3c2-c2ccccc2Cl)cc1 | 10 |

Results, then the compound that gave them:

| IC50 [nM] | Compound |
| --- | --- |
| 33.5 | NS(=O)(=O)c1ccc(-c2[nH]c3ccccc3c2-c2ccc(Cl)cc2)cc1 |
| 5 | CS(=O)(=O)c1ccc(-c2[nH]c3ccc(F)cc3c2-c2ccccc2)cc1 |
| 0.8 | CS(=O)(=O)c1ccc(-c2[nH]c3ccc(Cl)cc3c2-c2cccc(Cl)c2)cc1 |
| 0.17 | Cc1ccc(-c2c(-c3ccc(S(C)(=O)=O)cc3)[nH]c3ccccc23)cc1C |
| 0.07 | Cc1ccc(-c2c(-c3ccc(S(N)(=O)=O)cc3)[nH]c3ccccc23)cc1 |
